From the OPERA property sets (Mansouri et al. 2018) come the findings set out here.

For the compound `CN1CCN(CCCN2c3ccccc3Sc3ccc(C(F)(F)F)cc32)CC1.Cl.Cl`, the melting point (usually the temperature of the solid-liquid transition) turned out to be 240 °C.
Compound `CC(=O)NCC(=O)O` returned a melting point of 206 °C.
For the compound `Clc1ccccc1-c1cccc(Cl)c1Cl`, the log10 Henry constant (atm·m³/mol) was -3.7.
`O=C1CCCC1C1CCCC1` (centres undefined): the boiling point – broadly, the temperature at which the vapour pressure of the liquid equals the pressure above it – came to 232 °C and the melting point was -13 °C.
`O=C1C=CCCC1` returned a boiling point of 170 °C and a melting point of -53 °C.
On to `C=C(C)Cn1c(N)cc(=O)n(C)c1=O`, for which the melting point amounted to 175 °C.
Compound `CCC1(C)CC(=O)NC1=O` (centres undefined) displayed a melting point of 65 °C.
Regarding `CC(=O)c1ccc(-n2ccnc2)cc1`, the ready biodegradability entry is given as “readily biodegradable”.
`O=C1C=CC(=O)C=C1` registered a log10 vapour pressure (mmHg) of -1.05 and a melting point of 116 °C.
The compound `COc1cc(C#N)cc(OC)c1OC` had a melting point of 93.8 °C.
Turning to `CCCCCCCCCI`, the log10 vapour pressure (mmHg) was -1.56.
`O=C=Nc1ccc(Cc2ccc(N=C=O)cc2)cc1` yielded a melting point of 38 °C.
With `CCC#CCCCCC`, the boiling point turned out to be 157 °C.
Regarding `Clc1cccc(-c2cc(Cl)c(Cl)cc2Cl)c1`, the log10 Henry constant (atm·m³/mol) was -4.
For the compound `O=C(Nc1cccc2ccccc12)Nc1cccc2ccccc12`, the melting point came to 296 °C.
Consider `S=C(NC1CCCCC1)NC1CCCCC1`, for which the ready biodegradability result is recorded as “not readily biodegradable”.
`CC(C)C(C)C(C)(C)C` (centres undefined) displayed a boiling point of 133 °C, a log10 vapour pressure (mmHg) of 1.1 and a melting point of -121 °C.
Consider `CCCCCCCCOC(=O)CCCCC`, for which the boiling point amounted to 275 °C and the melting point was -28 °C.
Consider `FC(F)C(F)(F)C(F)Cl` (centres undefined), for which the boiling point worked out at 28.1 °C and the melting point turned out to be 85 °C.
In the same order, the values of `C=CCCCCCCCCCCCCCCCCCCCC` are 367 °C and 38 °C.
Turning to `CC1(C)C2CC3C(C2)C31C`, the boiling point stood at 152 °C and the melting point was 67.5 °C.
Turning to `FC(F)(F)C(F)(I)C(F)(F)F`, the boiling point stood at 40 °C.
Consider `CN(C)CCOCCN(C)C`, for which the ready biodegradability result is on record as “not readily biodegradable”.
Consider `Nc1ccc2cc(S(=O)(=O)O)cc(S(=O)(=O)O)c2c1`, for which the melting point worked out at 274 °C.
Turning to `CCCCC(O)CCCC`, the boiling point worked out at 193 °C.
With `CCCCCCC[C@H](C)O`, the boiling point worked out at 194 °C, the log10 vapour pressure (mmHg) was -1.17 and the melting point was -35.5 °C.
Consider `C=Cn1c2ccccc2c2ccccc21`, for which the melting point worked out at 65 °C.
Consider `O=c1[nH]cccc1O`, for which the ready biodegradability entry was “not readily biodegradable”.
In turn, `CC(C)(O)CCSc1ccc(S(N)(=O)=O)cc1` gave a melting point of 140 °C.
Take `O=P(c1ccccc1)(c1ccccc1)c1ccccc1`: the log10 vapour pressure (mmHg) was -8.59 and the melting point worked out at 156 °C.
In the case of `Cc1cnc2c(C(=O)O)c(Cl)ccc2c1`, the melting point worked out at 244 °C.
Turning to `FC(Cl)(Cl)C(F)(Cl)Cl`, the boiling point was found to be 93 °C, the log10 vapour pressure (mmHg) is 1.7, the melting point came to 26 °C and the ready biodegradability result is given as “not readily biodegradable”.
On to `C=CC(=C)Cl`, for which the boiling point was found to be 59.4 °C, the log10 vapour pressure (mmHg) amounted to 2.33 and the melting point was -130 °C.
`COS(=O)(=O)c1ccc(C)cc1` displayed a boiling point of 292 °C and a melting point of 28.5 °C.
As for `COc1ccc2c(c1)C(=O)N(CCc1ccc(S(=O)(=O)NC(=O)NC3CCCCC3)cc1)C(=O)C2(C)C`, the melting point was 181 °C.
The compound `Clc1ccc(Oc2ccc(Cl)cc2Cl)cc1` displayed a log10 vapour pressure (mmHg) of -3.82.
For `CCNc1nc(NC(C)C)nc(SC)n1`, the boiling point turned out to be 345 °C, the log10 Koc (L/kg) came out at 2.59, the log10 vapour pressure (mmHg) is -5.56 and the melting point is 88 °C. For the same compound, the ready biodegradability entry is reported as “not readily biodegradable”.
The compound `CC#C[C@]1(O)CC[C@H]2[C@@H]3C[C@H](C)C4=CC(=O)CC[C@]4(C)[C@H]3CC[C@@]21C` yielded a melting point of 102 °C.
For `O=C1C=CC(=O)c2c(O)ccc(O)c21`, the melting point was determined as 232 °C.
On to `CN(C)CCCOc1nn(Cc2ccccc2)c2ccccc12.Cl`, for which the melting point stood at 160 °C.
In the case of `C=C=CC`, the boiling point was 10.9 °C, the log10 vapour pressure (mmHg) was determined as 3.1 and the melting point is -136 °C.
In turn, `CC(C)OC(=O)[C@H](C)N(C(=O)c1ccccc1)c1ccc(F)c(Cl)c1` returned a melting point of 78.5 °C.
Regarding `O=S(=O)(c1ccc(O)cc1)c1ccc(O)cc1`, the melting point stood at 240 °C and the ready biodegradability entry is “not readily biodegradable”.
For `NNC(=O)c1ccncc1`, the melting point amounted to 171 °C.
As to `CCCCN1CCCCC1`, the boiling point was 176 °C.
Regarding `CC1=CC[C@@H]2CC1OC2(C)C`, the boiling point was 184 °C.
In turn, `C=CC(=O)O[C@@H]1C[C@H]2CC[C@]1(C)C2(C)C` returned a melting point of 97 °C.
Compound `CCC1(C2=CCCCC2)C(=O)NC(=O)NC1=O` had a melting point of 173 °C.
In turn, `COc1ccc(CO)cc1` came in with a boiling point of 259 °C and a melting point of 25 °C.
On to `Oc1ccccc1-c1ccccc1`, for which the boiling point came to 286 °C, the log10 vapour pressure (mmHg) was -2.7, the melting point is 59 °C and the ready biodegradability result is recorded as “readily biodegradable”.
The compound `CCCCCCSCCCCCC` registered a boiling point of 230 °C.
Regarding `CCC(O)CC`, the boiling point came to 116 °C and the log10 vapour pressure (mmHg) was found to be 0.943.
As for `O=C(O)[C@@]1(O)CC(O)[C@H](O)[C@H](O)C1` (some centres undefined), the melting point came out at 162 °C.
The compound `CCC(C)(C)Cl` had a boiling point of 85.5 °C and a melting point of -73.5 °C.
`Cc1cc(C(C)(C)C)ccc1O` showed a boiling point of 237 °C, a log10 vapour pressure (mmHg) of -1.55 and a melting point of 27.5 °C.
The compound `c1ccc(C2(N3CCCCC3)CCCCC2)cc1` yielded a melting point of 46.5 °C.
